Experimental findings from ChEMBL document CHEMBL2016573, “Fluorescent nucleosides with 'on-off' switching function, pH-responsive fluorescent uridine derivatives” (Bioorg Med Chem Lett, 2012) are described below.

The nature of series [1]: Dissociation constant, pKa of the compound at pH < 5. Format: physicochemical.
The test system of another series is Huh-7. Kind of series: Cellular uptake in human HuH7 cells at 1 uM after 2 hrs by fluorescence microscopic analysis. It counts as ADME, cell-based. Conditions: huh-7, 2 h; call rule not given here.
Series [2] is described as follows: Dissociation constant, pKa of the compound at pH 4.8 to 8.2. It counts as physicochemical.
Series [3] in a line: Drug uptake in human HuH7 cells assessed as localization in cytosol at 1 uM after 2 hrs by fluorescence microscopic analysis. Format: ADME, cell-based, Huh-7.

As for `Nc1ccc(C#Cc2c3ccccc3c(C#Cc3cn([C@H]4C[C@H](O)[C@@H](CO)O4)c(=O)[nH]c3=O)c3ccccc23)cc1`, the pKa (in general, the pH at which an ionisable group is half protonated) in series [1] is 3.9.

Consider `CNc1ccc(C#Cc2c3ccccc3c(C#Cc3cn([C@H]4C[C@H](O)[C@@H](CO)O4)c(=O)[nH]c3=O)c3ccccc23)cc1`, for which the pKa in series [1] turned out to be 3.7. For the same compound, the Drug uptake entry with Huh-7 is “Not Active”.

`CCC(CC)Nc1ccc(C#Cc2c3ccccc3c(C#Cc3cn([C@H]4C[C@H](O)[C@@H](CO)O4)c(=O)[nH]c3=O)c3ccccc23)cc1` returned a pKa in series [1] of 3.7.

`O=c1[nH]c(=O)n([C@H]2C[C@H](O)[C@@H](CO)O2)cc1C#Cc1c2ccccc2c(C#Cc2ccc(NC3CCCCC3)cc2)c2ccccc12` gave a pKa in series [1] of 3.9.

`CCCCNc1ccc(C#Cc2c3ccccc3c(C#Cc3cn([C@H]4C[C@H](O)[C@@H](CO)O4)c(=O)[nH]c3=O)c3ccccc23)cc1` showed a pKa in series [1] of 3.5.

For the compound `CC(C)(C)Nc1ccc(C#Cc2c3ccccc3c(C#Cc3cn([C@H]4C[C@H](O)[C@@H](CO)O4)c(=O)[nH]c3=O)c3ccccc23)cc1`, the pKa in series [1] and in series [2] was 6.1 in each case. The Drug uptake result in series [3] is “Active”.

Turning to `CN(C)c1ccc(C#Cc2c3ccccc3c(C#Cc3cn([C@H]4C[C@H](O)[C@@H](CO)O4)c(=O)[nH]c3=O)c3ccccc23)cc1`, the pKa in series [1] is 3.
